Data taken from patent US9579385B2, “Ophthalmic compositions comprising polyvinyl caprolactam-polyvinyl acetate-polyethylene glycol graft copolymers” (Allergan, Inc., priority 2011, dated 2017).
Values after ≈ are worked out from the molar mass of the structure shown.

Assay: Bimatoprost solubility in formulation vehicles with different solubilizers
Type: physicochemical
Settings: for solubility at 8 weeks: measured at 8 weeks; for solubility at 1 week: formulation vehicle with 1% SOLUPLUS (PCA-PVA-PEG), vehicle with 1% SOLUPLUS (PCA-PVA-PEG), measured at 1 week only
Description: Table 1 summarizes solubility of bimatoprost in vehicles with 5 different solubilizers over a range of temperatures.

- solubility at 8 weeks (formulation vehicle with 1% POE 40 Stearate, aqueous with cosolvent or surfactant or cyclodextrin, vehicle with 1% POE 40 Stearate, 5 °C): 1270 µg/mL (≈ 3.05 mM)
- solubility at 8 weeks (formulation vehicle with 1% POE 40 Stearate, aqueous with cosolvent or surfactant or cyclodextrin, vehicle with 1% POE 40 Stearate, 25 °C): 1210 µg/mL (≈ 2.92 mM)
- solubility at 8 weeks (formulation vehicle with 1% POE 40 Stearate, aqueous with cosolvent or surfactant or cyclodextrin, vehicle with 1% POE 40 Stearate, 40 °C): 1150 µg/mL (≈ 2.76 mM)
- solubility at 8 weeks (formulation vehicle with 1% Polysorbate 20, aqueous with cosolvent or surfactant or cyclodextrin, vehicle with 1% Polysorbate 20, 5 °C): 1240 µg/mL (≈ 2.99 mM)
- solubility at 8 weeks (formulation vehicle with 1% Polysorbate 20, aqueous with cosolvent or surfactant or cyclodextrin, vehicle with 1% Polysorbate 20, 25 °C): 1180 µg/mL (≈ 2.83 mM)
- solubility at 8 weeks (formulation vehicle with 1% Polysorbate 20, aqueous with cosolvent or surfactant or cyclodextrin, vehicle with 1% Polysorbate 20, 40 °C): 1050 µg/mL (≈ 2.53 mM)
- solubility at 8 weeks (formulation vehicle with 1% Polysorbate 80, aqueous with cosolvent or surfactant or cyclodextrin, vehicle with 1% Polysorbate 80, 5 °C): 1680 µg/mL (≈ 4.04 mM)
- solubility at 8 weeks (formulation vehicle with 1% Polysorbate 80, aqueous with cosolvent or surfactant or cyclodextrin, vehicle with 1% Polysorbate 80, 25 °C): 1520 µg/mL (≈ 3.67 mM)
- solubility at 8 weeks (formulation vehicle with 1% Polysorbate 80, aqueous with cosolvent or surfactant or cyclodextrin, vehicle with 1% Polysorbate 80, 40 °C): 1460 µg/mL (≈ 3.51 mM)
- solubility at 1 week (aqueous with cosolvent or surfactant or cyclodextrin, 5 °C): 427 µg/mL (≈ 1.03 mM)
- solubility at 1 week (aqueous with cosolvent or surfactant or cyclodextrin, 25 °C): 3510 µg/mL (≈ 8.45 mM)
- solubility at 1 week (aqueous with cosolvent or surfactant or cyclodextrin, 40 °C): 4750 µg/mL (≈ 11.4 mM)
- solubility at 8 weeks (formulation vehicle with 1% SOLUTOL HS 15, aqueous with cosolvent or surfactant or cyclodextrin, vehicle with 1% SOLUTOL HS 15, 5 °C): 1500 µg/mL (≈ 3.61 mM)
- solubility at 8 weeks (formulation vehicle with 1% SOLUTOL HS 15, aqueous with cosolvent or surfactant or cyclodextrin, vehicle with 1% SOLUTOL HS 15, 25 °C): 1320 µg/mL (≈ 3.18 mM)
- solubility at 8 weeks (formulation vehicle with 1% SOLUTOL HS 15, aqueous with cosolvent or surfactant or cyclodextrin, vehicle with 1% SOLUTOL HS 15, 40 °C): 1240 µg/mL (≈ 2.98 mM)
SMILES: CCNC(=O)CCC/C=C\C[C@@H]1[C@@H](/C=C/[C@@H](O)CCc2ccccc2)[C@H](O)C[C@@H]1O [Bimatoprost]
